Measurements: PMC12856912, “Structure-Guided Semisynthesis of Blasticidin S–Amicetin Chimeras as Selective Ribosome Inhibitors” (Journal of the American Chemical Society, 2026)
Values after ≈ are worked out from the molar mass of the structure shown.

Assays:
MRSA ATCC 43300 = experiment: Antibacterial MIC assay, serial dilution; type: cell-based, Staphylococcus aureus; conditions: for Selectivity index (CC50/MIC) MRSA 43300: CC50 Vero cells / MIC; for MIC: Staphylococcus aureus, read-out: MIC MRSA ATCC 43300
In short: (§1)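 MIC is the lowest concentration giving >90% growth inhibition by OD600, normalized to doxycycline and vehicle controls. Compounds were serially diluted to final 128–1 μg/mL against cultures diluted to OD600 0.004 in CAMHB and incubated at 37 °C for 16–18 h (VRE 24 h).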

S. aureus ATCC 6538P = experiment: Antibacterial MIC assay, serial dilution; type: cell-based, Staphylococcus aureus; conditions: for Selectivity index (CC50/MIC) S. aureus 6538P: CC50 Vero cells / MIC; for MIC: Staphylococcus aureus, ATCC 6538P / ATCC 6539P, read-out: MIC S. aureus ATCC 6539P
In short: as §1

S. aureus ΔNorA = experiment: Antibacterial MIC assay, serial dilution; type: cell-based, Staphylococcus aureus; conditions: for Selectivity index (CC50/MIC) S. aureus ΔNorA: CC50 Vero cells / MIC; for MIC: Staphylococcus aureus, read-out: MIC S. aureus ∆NorA
In short: as §1

[1] = system: Methicillin resistant Staphylococcus epidermidis (MRSE) ATCC 35984 NRS101; experiment: Antibacterial MIC assay, serial dilution; type: cell-based; conditions: for Selectivity index (CC50/MIC) MRSE 35984: CC50 Vero cells / MIC; for MIC: Staphylococcus epidermidis, read-out: MIC Methicillin resistant Staphylococcus epidermidis (MRSE) ATCC 35984 NRS101
[2] = system: Methicillin resistant S. aureus (MRSA) USA300; experiment: Antibacterial MIC assay, serial dilution; type: cell-based, Staphylococcus aureus; conditions: for Selectivity index (CC50/MIC) MRSA USA300: CC50 Vero cells / MIC; for MIC: Staphylococcus aureus, read-out: MIC Methicillin resistant S. aureus (MRSA) USA300
[3] = system: Vancomycin resistant E. faecalis NR-31972 (VRE); experiment: Antibacterial MIC assay, serial dilution; type: cell-based, Enterococcus faecalis; conditions: for Selectivity index (CC50/MIC) VRE NR-31972: CC50 Vero cells / MIC; for MIC: Enterococcus faecalis, VRE, 24 h, read-out: MIC Vancomycin resistant E. faecalis NR-31972 (VRE)
In short: as §1

[4] = system: Acinetobacter baumannii ATCC 17978; experiment: Antibacterial MIC assay, serial dilution; type: cell-based; conditions: ATCC17978, range from biological replicates
In short: as §1

[5] = system: Enterococcus faecalis ATCC 29212; experiment: Antibacterial MIC assay, serial dilution; type: cell-based; conditions: for Selectivity index (CC50/MIC) E. faecalis 29212: CC50 Vero cells / MIC; for MIC: Enterococcus faecalis, ATCC 29112 / ATCC 29212, 24 h, read-out: MIC E. faecalis ATCC 29112
[6] = system: Klebsiella pneumoniae ATCC 29665; experiment: Antibacterial MIC assay, serial dilution; type: cell-based; conditions: for MIC: Klebsiella pneumoniae, ATCC29665, range from biological replicates, read-out: MIC K. pneumoniae ATCC-29665
In short: as §1

Pseudomonas aeruginosa = experiment: Antibacterial MIC assay, serial dilution; type: cell-based; conditions: for Selectivity index (CC50/MIC) P. aeruginosa: CC50 Vero cells / MIC; for MIC: Pseudomonas aeruginosa, range from biological replicates, read-out: MIC P. aeruginosa
In short: as §1

[7] = system: Vancomycin resistant Enterococcus faecium NR-31909 (VRE); experiment: Antibacterial MIC assay, serial dilution; type: cell-based; conditions: for MIC: Enterococcus faecium, VRE, 24 h, read-out: MIC Vancomycin resistant Enterococcus faecium NR-31909 (VRE)
In short: as §1

[8] = system: Escherichia coli BAA-2452; experiment: Antibacterial MIC assay, serial dilution; type: cell-based; conditions: BAA2452, read-out: MIC Escherichia coli BAA-2452
[9] = Cytotoxicity assay (MTS/PMS); type: cell-based; conditions: monkey, Vero cells (monkey kidney epithelial cells); 24 h treatment, MTS/PMS, average of three biological replicates; read-out: CC50 against Vero cells
In short: (§2)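 CC50 (µg/mL) was taken as the compound level that lowered vehicle-normalized viability to 50%, from MTS/PMS absorbance at 490 nm after 4 h with reagent. Monkey kidney Vero cells in DMEM/10% FBS received serial dilutions for 24 h at 37 °C, in three biological replicates.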

Vero cells = experiment: Cytotoxicity assay (MTS/PMS); type: cell-based; conditions: Vero cells, chimera vs parent of its series
In short: as §2

bacteria = experiment: Antibacterial assays, summary statements over the panel; type: cell-based; conditions: against most S. aureus strains
Method: Media and solutions were autoclaved or sterile filtered prior to use and mani pulations were carri ed out in a laminar flow hood. Antibacterial t esting was performed in polypropylene 96-well flat bottom plates. The minimal inhibitory concentration of blasticidin S (1) hydrochloride, methyl ester (3) trihydrochloride, P10 (2) tri-T FA , phenet hyl amide (4) tri -T FA , an d blastimidines M 19– 22, A, 29–32, P 37–40, and C 43–46 (salt forms as described in the te xt) were assessed against Staphylococcus aureus ΔNorA, S. aureus ATCC 6538P, methicillin-resistant S. aureus (MRSA) ATCC 43300, Enterococcus faecalis ATCC 29212, vancomycin- resistant Enterococcus, Klebsiella pneumoniae ATCC 29665, Pseudomonas aeruginosa,and Acinetobacter baumannii ATCC 17978 using serial dilutions. Doxycycline (Gold Bio) as a positive control and the vehicle as a negative control. Stock solutions of each compound were prepared at 2.56 mg/mL in 50% DMSO/water and serially diluted in 50% DMSO/water to create master plates. […]
Growth controls (wells with inoculated media but no vehicle or test compounds) were included to assess any potential toxicity from the vehicle. […] Inh ibition was determined by measuring the optical density at 600 nm (OD60 0) with a Cytation 3 pl ate read er (BioTek). […]

MRSA USA-300 = type: cell-based, Staphylococcus aureus; conditions: for bacteriostatic or bactericidal effect in time-kill assay: 5× MIC and 10× MIC
Method: MRSA USA-300 was grown overnight in cation- adjusted Muell er-Hinton broth (CAMHB), then subcultured into fresh CAMHB and incubated aerobi cally at 37°C until reaching the logarithmic phase, corresponding to an optical density (OD₆₀₀) of 0.2. The bacterial cultures were further diluted to adjust to a final concentration of 5 × 10⁵ CFU/mL in CAMHB. P3, P5, vancomycin and linezolid, were added at concentrations of 5× and 10× MIC. A DMSO-treated […]
culture serv ed as an untreated control. The cultures were aerobically maintai ned at 37°C in shaking incubator. At specifi c sampling times, aliquots were collected, resuspended in phosphate-buffered saline (PBS) and distributed to three replicates on tryptic soy agar (TSA). After a 24-hour incubation period at 37°C, the number of colony- forming units (CFUs) was evaluated.
F i g u re S 1. Time kill results against MRSA USA 300 at 5X and 10X MIC. Compound P3 ( 38) is shown as red squares, compound P5( 40) is shown as green tri angles. Vancomycin (inverted purple triangle) is used as a b act ericidal control and linezolid (orange diamond) as a bacteriostatic control with DMSO (blue circles ) as a neg ative control. […]

SMILES | Selectivity index (CC50/MIC) MRSA 43300 (MRSA ATCC 43300) | MIC (MRSA ATCC 43300) | Selectivity index (CC50/MIC) S. aureus 6538P (S. aureus ATCC 6538P) | MIC (S. aureus ATCC 6538P) | Selectivity index (CC50/MIC) S. aureus ΔNorA (S. aureus ΔNorA) | MIC (S. aureus ΔNorA) | Selectivity index (CC50/MIC) MRSE 35984 [1] | MIC [1] | Selectivity index (CC50/MIC) MRSA USA300 [2] | MIC [2] | Selectivity index (CC50/MIC) VRE NR-31972 [3] | MIC [3] | MIC [4] | Selectivity index (CC50/MIC) E. faecalis 29212 [5] | MIC [5] | MIC [6] | Selectivity index (CC50/MIC) P. aeruginosa (Pseudomonas aeruginosa) | MIC (Pseudomonas aeruginosa) | MIC [7] | MIC [8] | further results
CC(=O)Nc1ccc(C(=O)Nc2ccn([C@H]3C=C[C@H](NC(=O)C[C@@H](N)CCN(C)C(=N)N)[C@@H](C(=O)O)O3)c(=O)n2)cc1 [Blastimidine C4] | <1.6 | > 128 µg/mL | <1.6 | > 128 µg/mL | <1.6 | > 128 µg/mL | <1.6 | > 128 µg/mL | <1.6 | > 128 µg/mL | <1.6 | > 128 µg/mL | > 128 µg/mL | <1.6 | > 128 µg/mL | 128 µg/mL (≈ 219 µM) | <1.6 | > 128 µg/mL | > 128 µg/mL | > 128 µg/mL | CC50 at 24 h [9]: 203 µg/mL (≈ 348 µM); fold lower cytotoxicity relative to parent molecule (Vero cells): > 10 fold
CNc1ccc(C(=O)Nc2ccn([C@H]3C=C[C@H](NC(=O)C[C@@H](N)CCN(C)C(=N)N)[C@@H](C(=O)OC)O3)c(=O)n2)cc1 [Blastimidine M3] | 13 | 16 µg/mL (≈ 28.1 µM) | 26 | 8 µg/mL (≈ 14 µM) | 26 | 8 µg/mL (≈ 14 µM) | 26 | 8 µg/mL (≈ 14 µM) | 26 | 8 µg/mL (≈ 14 µM) | 13 | 16 µg/mL (≈ 28.1 µM) | > 128 µg/mL | 13 | 16 µg/mL (≈ 28.1 µM) | 32 µg/mL (≈ 56.2 µM) | <1.6 | > 128 µg/mL | 64 µg/mL (≈ 112 µM) | 32 µg/mL (≈ 56.2 µM) | Selectivity index (CC50/MIC) K. pneumoniae ([6]; CC50 Vero cells / MIC): 6.4; Selectivity index (CC50/MIC) VRE NR-31909 ([7]; CC50 Vero cells / MIC): 3.2; CC50 at 24 h [9]: 205 µg/mL (≈ 360 µM); Selectivity index (SI) (bacteria): > 25
CC(=O)NC[C@H]1CN(c2ccc(N3CCOCC3)c(F)c2)C(=O)O1 [linezolid, reference compound] | – | – | – | – | – | – | – | – | – | – | – | – | – | – | – | – | – | – | – | – | bacteriostatic or bactericidal effect in time-kill assay (MRSA USA-300): bacteriostatic activity
CN[C@H](CC(C)C)C(=O)N[C@H]1C(=O)N[C@@H](CC(N)=O)C(=O)N[C@H]2C(=O)N[C@H]3C(=O)N[C@H](C(=O)N[C@H](C(=O)O)c4cc(O)cc(O)c4-c4cc3ccc4O)[C@H](O)c3ccc(c(Cl)c3)Oc3cc2cc(c3O[C@@H]2O[C@H](CO)[C@@H](O)[C@H](O)[C@H]2O[C@H]2C[C@](C)(N)[C@H](O)[C@H](C)O2)Oc2ccc(cc2Cl)[C@H]1O [vancomycin, reference compound] | – | – | – | – | – | – | – | – | – | – | – | – | – | – | – | – | – | – | – | – | bacteriostatic or bactericidal effect in time-kill assay (MRSA USA-300): bactericidal activity; time to bactericidal activity (MRSA USA-300; time-kill assay): ≤ 8 h
